Data from publication PMC9399681, “Structural insight into ASH1L PHD finger recognizing methylated histone H3K4 and promoting cell growth in prostate cancer” (Frontiers in Oncology, 2022).
Positions count from the first letter of the chain named.

Columns and labels:
Assay type in all cases: binding, mASH1L
ASH1L PHD finger [1] = target: T1, ASH1L PHD finger (Mus musculus, UniProt Q99MY8); experiment: ITC, ASH1L PHD finger with H3 peptides; conditions: 1×PBS, 100-μM ZnCl2, pH 7.2; for Kd: MicroCal iTC200, 25°C, 100 µM protein titrated with 3 mM peptide, H3 (1–15) peptides, H3 (2–16) K9me2, H3 (29–43) K36me2; for binding by ITC, in words: 25°C
T1 construct: The mASH1L PHD domain (residue 2573–2624); MBP (cleaved yes); made in house; host or cells: Escherichia coli BL21 (DE3)
Method: The bacteria were grown in Luria Broth (LB) media, supplemented with 100-μM ZnCl2 (all PHD constructs). All PHD domains were expressed in Escherichia coli BL21 (DE3) cells and induced overnight with 0.5-mM isopropyl-β-D-1-thiogalactopyranoside (IPTG) at 22°C. In addition, the cells were harvested by centrifugation at 4,000 g. The harvested cells with MBP-tagged PHD were resuspended in buffer containing 25-mM Tris, pH 7.2, 1-M NaCl, 20-mM β-mercaptoethanol, 100-μM ZnCl2, and the Complete EDTA-free Protease Inhibitor (Roche, Mannheim, Germany). Following lysis in a microfluidizer (MFIC), cell debris was removed by centrifugation at 12,000 g for 1 h and the supernatant was loaded on a 5-ml MBPTrap HP column (GE Healthcare). The binding protein was eluted with buffer containing 25-mM Tris, pH 7.2, 500-mM NaCl, 20-mM β-mercaptoethanol, 20-mM maltose, and 100-μM ZnCl2. After TEV cleavage, the PHD domain was supplemented with 20-mM DTT and further purified using a Superdex 75 column (GE Healthcare, Uppsala, Sweden) in a final buffer containing 1×PBS, pH 7.2, 100- μM ZnCl2. […] The PHD protein was concentrated with a filter tube (Millipore, Co. Cork, Ireland) and measured by UV absorbance at 280 nm.
ITC assays were carried out on the MicroCal iTC200 System (Malvern) at 25°C while stirring at 750 rpm in the ITC buffer of pH 7.2, consisting of 1×PBS, 100-μM ZnCl2. […] The PHD or tandem Bromo-PHD protein sample of 100 µM was placed in the cell and titrated with 3 mM of a different peptide solution in the ITC buffer using a set of 31 injections of 1.2 μl, following a single initial injection of 0.2 μl. In the ITC measurements of PHD mutant samples, the H3 (1–15) peptides were diluted to the final concentrations of 1.5 mM, titrated with a single initial injection of 0.4 μl and followed with a set of 19 injections of 2 μl. Cumulative enthalpy exchange plots were derived from the raw thermal changes, using one set of a site-fitting model.

ASH1L PHD finger [2] = target: T1, ASH1L PHD finger; experiment: NMR titration, KD estimation; conditions: 100 μM PHD, peptide 25-2,000 μM, 298 K, 1×PBS, pH 7.2, 100-μM ZnCl2; single-site model; mean ± SEM; H3 (1–15) peptides
From the text: (§1) The mASH1L PHD domain (residue 2573–2624) was subcloned into a modified pMAL-c5X expression vector (New England Biolabs, Ipswich, MA, US), which contains an MBP tag and a TEV cleavage site. The site-directed mutagenesis of D2573A, I2575A, D2584E, E2585A, M2588A, Q2590E, and W2597A in the PHD domain was generated using the PfuTurbo DNA polymerase (Agilent Technologies) and Dpn I restriction enzyme (New England Biolabs). After the MBP tag was cut by TEV, these proteins were used in ITC and NMR experiments. The His-tagged PHD domain was subcloned into a pGEX-4T1 expression vector. The base vector has a GST tag and was engineered to include a TEV cleavage site before a 5′ 6×His sequence. […]
(§2) The bacteria were grown in Luria Broth (LB) media, supplemented with 100-μM ZnCl2 (all PHD constructs). […] The size and purity of the purified protein were monitored by SDS-PAGE. The PHD protein was concentrated with a filter tube (Millipore, Co. Cork, Ireland) and measured by UV absorbance at 280 nm.
(§3) The ^1H,^15N HSQC spectra of the ^15N-labeled PHD finger were collected at 298 K on a Bruker 800-MHz NMR spectrometer equipped with the z-gradient triple-resonance cryoprobe. The binding was analyzed through monitoring chemical shift perturbations observed in the two-dimensional ^1H,^15N HSQC spectra of PHD finger upon the addition of H3 (aa 1-15) peptides (H3K4me, H3K4me2, H3K4me3). […]

ASH1L PHD M2588A = target: T2, ASH1L PHD M2588A (Mus musculus, UniProt Q99MY8, M2588A); experiment: ITC, ASH1L PHD mutant M2588A; conditions: 1.5 mM H3 (1–15) peptide, 25°C, pH 7.2, 1×PBS, 100-μM ZnCl2
T2 construct: The mASH1L PHD domain (residue 2573–2624); MBP (cleaved yes); made in house; host or cells: Escherichia coli BL21 (DE3)
T2 sequence (Q99MY8 2573-2624 M2588A): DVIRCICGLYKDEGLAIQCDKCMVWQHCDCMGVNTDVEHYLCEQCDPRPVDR
From the text: as §1, with “sequence. After the GST tag was cut, this protein was used for the peptide array assay. The His-tagged Bromo-PHD tandem domain (residue 2425–2627) of mASH1L was subcloned into a pNIC-Bsa4 expression vector, which contains a His tag.” for “sequence.”
as §2, with “nm. […]” for “nm.”

ASH1L PHD Q2590E = target: T3, ASH1L PHD Q2590E (Mus musculus, UniProt Q99MY8, Q2590E); experiment: ITC, ASH1L PHD mutant Q2590E; conditions: 1.5 mM H3 (1–15) peptide, 25°C, pH 7.2, 1×PBS, 100-μM ZnCl2
T3 construct: The mASH1L PHD domain (residue 2573–2624); MBP (cleaved yes); made in house; host or cells: Escherichia coli BL21 (DE3)
T3 sequence (Q99MY8 2573-2624 Q2590E): T2 sequence (Q99MY8 2573-2624 M2588A) with A16M, Q18E
From the text: as §1, with “sequence. After the GST tag was cut, this protein was used for the peptide array assay. The His-tagged Bromo-PHD tandem domain (residue 2425–2627) of mASH1L was subcloned into a pNIC-Bsa4 expression vector, which contains a His tag.” for “sequence.”
as §2, with “nm. […]” for “nm.”

ASH1L PHD W2597A = target: T4, ASH1L PHD W2597A (Mus musculus, UniProt Q99MY8, W2597A); experiment: ITC, ASH1L PHD mutant W2597A; conditions: 1.5 mM H3 (1–15) peptide, 25°C, pH 7.2, 1×PBS, 100-μM ZnCl2
T4 construct: The mASH1L PHD domain (residue 2573–2624); MBP (cleaved yes); made in house; host or cells: Escherichia coli BL21 (DE3)
T4 sequence (Q99MY8 2573-2624 W2597A): T2 sequence (Q99MY8 2573-2624 M2588A) with A16M, W25A
From the text: as §1, with “sequence. After the GST tag was cut, this protein was used for the peptide array assay. The His-tagged Bromo-PHD tandem domain (residue 2425–2627) of mASH1L was subcloned into a pNIC-Bsa4 expression vector, which contains a His tag.” for “sequence.”
as §2, with “nm. […]” for “nm.”

ASH1L PHD finger [3] = target: T1, ASH1L PHD finger; experiment: 1H,15N HSQC chemical shift perturbation; conditions: protein-to-peptide molar ratio 1:5; 298 K, 800 MHz, 1×PBS, pH 7.2, 100-μM ZnCl2
From the text: as §1, §2, §3

| SMILES | Kd (ASH1L PHD finger [1]) | Kd (ASH1L PHD finger [2]) | Kd (ASH1L PHD M2588A) | Kd (ASH1L PHD Q2590E) | Kd (ASH1L PHD W2597A) | binding by ITC, in words (ASH1L PHD finger [1]) | HSQC chemical shift perturbation (ASH1L PHD finger [3]) |
| --- | --- | --- | --- | --- | --- | --- | --- |
| C[C@H](N)C(=O)N[C@@H](CCCNC(=N)N)C(=O)N[C@H](C(=O)N[C@@H](CCCC[N+](C)(C)C)C(=O)N[C@@H](CCC(N)=O)C(=O)N[C@H](C(=O)N[C@@H](C)C(=O)N[C@@H](CCCNC(=N)N)C(=O)N[C@@H](CCCCN)C(=O)N[C@@H](CO)C(=O)N[C@H](C(=O)NCC(=O)NCC(=O)N[C@@H](CCCCN)C(=O)N[C@@H](C)C(=O)O)[C@@H](C)O)[C@@H](C)O)[C@@H](C)O [H3K4me3] | 64 ± 4 µM | 106 ± 6 µM | > 200 µM | 33 ± 8 µM | > 200 µM | – | – |
| C[C@H](NC(=O)[C@@H](NC(=O)[C@H](CCC(N)=O)NC(=O)[C@H](CCCCN)NC(=O)[C@@H](NC(=O)[C@@H](N)CCCNC(=N)N)[C@@H](C)O)[C@@H](C)O)C(=O)N[C@@H](CCCNC(=N)N)C(=O)N[C@@H](CCCCN(C)C)C(=O)N[C@@H](CO)C(=O)N[C@H](C(=O)NCC(=O)NCC(=O)N[C@@H](CCCCN)C(=O)N[C@@H](C)C(=O)N1CCC[C@H]1C(=O)O)[C@@H](C)O [H3K9me2] | > 500 µM | – | – | – | – | weak binding affinity | binds with methylated H3K4 peptides but not H3K4me0, H3K9me2, or H3K36me2 peptides |
| CC(C)[C@H](NC(=O)CNC(=O)CNC(=O)[C@@H](NC(=O)[C@H](C)NC(=O)[C@@H]1CCCN1C(=O)[C@H](C)N)[C@@H](C)O)C(=O)N[C@@H](CCCCN(C)C)C(=O)N[C@@H](CCCCN)C(=O)N1CCC[C@H]1C(=O)N[C@@H](Cc1c[nH]cn1)C(=O)N[C@@H](CCCNC(=N)N)C(=O)N[C@@H](Cc1ccc(O)cc1)C(=O)N[C@@H](CCCNC(=N)N)C(=O)N1CCC[C@H]1C(=O)O [H3K36me2] | – | – | – | – | – | weak binding affinity | binds with methylated H3K4 peptides but not H3K4me0, H3K9me2, or H3K36me2 peptides |
